Assay results reported in ChEMBL document CHEMBL6182909 (J Med Chem, 2025).
Converted amounts (≈) assume the structure as drawn. The source made the active and inactive calls. The rule behind the calls is not given here.

Experiments:
[1] = Drug concentration in plasma of fasted male Sprague-Dawley rat assessed as inhibition of food intake at 10 mg/kg, po measured after 1 hr relative to control; assay type: organism-based
[2] = Drug concentration in brain of fasted male Sprague-Dawley rat assessed as inhibition of food intake at 10 mg/kg, po measured after 1 hr relative to control; assay type: organism-based; conditions: read-out: Ct
Rattus norvegicus [3] = assay: Hypophagic effect in fasted male Sprague-Dawley rat assessed as inhibition of food intake at 5 mg/kg, po measured after 1 hr relative to control; assay type: functional
Rattus norvegicus [4] = assay: Hypophagic effect in fasted male Sprague-Dawley rat assessed as effective dose administered orally measured after 1 hr relative to control; assay type: functional; conditions: route po
[5] = Half life in mouse at 2 mg/kg, iv; assay type: ADME, organism-based; conditions: in vivo
[6] = Half life in rat at 2 mg/kg, iv; assay type: ADME, organism-based; conditions: in vivo
[7] = Half life in dog at 2 mg/kg, iv; assay type: ADME, organism-based, Canis lupus familiaris; conditions: in vivo
[8] = Half life in Cynomolgus monkey at 2 mg/kg, iv; assay type: ADME, organism-based, Macaca fascicularis; conditions: in vivo
[9] = AUC (0 to infinity) in mouse at 2 mg/kg, iv; assay type: ADME, organism-based; conditions: in vivo
[10] = AUC (0 to infinity) in rat at 2 mg/kg, iv; assay type: ADME, organism-based; conditions: in vivo
[11] = AUC (0 to infinity) in dog at 2 mg/kg, iv; assay type: ADME, organism-based, Canis lupus familiaris; conditions: in vivo
[12] = AUC (0 to infinity) in Cynomolgus monkey at 2 mg/kg, iv; assay type: ADME, organism-based, Macaca fascicularis; conditions: in vivo
[13] = Clearance in mouse at 2 mg/kg, iv; assay type: ADME, organism-based; conditions: in vivo
[14] = Clearance in rat at 2 mg/kg, iv; assay type: ADME, organism-based; conditions: in vivo
[15] = Clearance in dog at 2 mg/kg, iv; assay type: ADME, organism-based, Canis lupus familiaris; conditions: in vivo
[16] = Clearance in Cynomolgus monkey at 2 mg/kg, iv; assay type: ADME, organism-based, Macaca fascicularis; conditions: in vivo
[17] = Volume of distribution at steady state in mouse at 2 mg/kg, iv; assay type: ADME, organism-based; conditions: in vivo, read-out: Vdss
[18] = Volume of distribution at steady state in rat at 2 mg/kg, iv; assay type: ADME, organism-based; conditions: in vivo, read-out: Vdss
[19] = Volume of distribution at steady state in dog at 2 mg/kg, iv; assay type: ADME, organism-based, Canis lupus familiaris; conditions: in vivo, read-out: Vdss
[20] = Volume of distribution at steady state in Cynomolgus monkey at 2 mg/kg, iv; assay type: ADME, organism-based, Macaca fascicularis; conditions: in vivo, read-out: Vdss
[21] = Renal clearance in rat at 2 mg/kg, iv; assay type: ADME, organism-based; conditions: in vivo
[22] = Renal clearance in dog at 2 mg/kg, iv; assay type: ADME, organism-based, Canis lupus familiaris; conditions: in vivo
[23] = Renal clearance in Cynomolgus monkey at 2 mg/kg, iv; assay type: ADME, organism-based, Macaca fascicularis; conditions: in vivo
[24] = Half life in mouse at 5 mg/kg, po; assay type: ADME, organism-based; conditions: in vivo
[25] = Half life in rat at 5 mg/kg, po; assay type: ADME, organism-based; conditions: in vivo
[26] = Half life in dog at 5 mg/kg, po; assay type: ADME, organism-based, Canis lupus familiaris; conditions: in vivo
[27] = Half life in Cynomolgus monkey at 5 mg/kg, po; assay type: ADME, organism-based, Macaca fascicularis; conditions: in vivo
[28] = Tmax in mouse at 5 mg/kg, po; assay type: ADME, organism-based; conditions: in vivo
[29] = Tmax in rat at 5 mg/kg, po; assay type: ADME, organism-based; conditions: in vivo
[30] = Tmax in dog at 5 mg/kg, po; assay type: ADME, organism-based, Canis lupus familiaris; conditions: in vivo
[31] = Tmax in Cynomolgus monkey at 5 mg/kg, po; assay type: ADME, organism-based, Macaca fascicularis; conditions: in vivo
[32] = Cmax in mouse at 5 mg/kg, po; assay type: ADME, organism-based; conditions: in vivo
[33] = Cmax in rat at 5 mg/kg, po; assay type: ADME, organism-based; conditions: in vivo
[34] = Cmax in dog at 5 mg/kg, po; assay type: ADME, organism-based, Canis lupus familiaris; conditions: in vivo
[35] = Cmax in Cynomolgus monkey at 5 mg/kg, po; assay type: ADME, organism-based, Macaca fascicularis; conditions: in vivo
[36] = AUC (0 to infinity) in mouse at 5 mg/kg, po; assay type: ADME, organism-based; conditions: in vivo
[37] = AUC (0 to infinity) in rat at 5 mg/kg, po; assay type: ADME, organism-based; conditions: in vivo
[38] = AUC (0 to infinity) in dog at 5 mg/kg, po; assay type: ADME, organism-based, Canis lupus familiaris; conditions: in vivo
[39] = AUC (0 to infinity) in Cynomolgus monkey at 5 mg/kg, po; assay type: ADME, organism-based, Macaca fascicularis; conditions: in vivo
[40] = Oral bioavailability in mouse at 5 mg/kg; assay type: ADME, organism-based; conditions: in vivo
[41] = Oral bioavailability in rat at 5 mg/kg; assay type: ADME, organism-based; conditions: in vivo
[42] = Oral bioavailability in dog at 5 mg/kg; assay type: ADME, organism-based, Canis lupus familiaris; conditions: in vivo
[43] = Oral bioavailability in Cynomolgus monkey at 5 mg/kg; assay type: ADME, organism-based, Macaca fascicularis; conditions: in vivo
Rattus norvegicus [44] = assay: Hypophagic effect in fasted male Sprague-Dawley rat assessed as inhibition of food intake at 10 mg/kg, po measured after 1 hr relative to control; assay type: functional; conditions: Rattus norvegicus, Sprague-Dawley, po
Rattus norvegicus [45] = species on record: Rattus norvegicus; assay: animal or person; conditions: Sprague-Dawley, po, 1 h, read-out: INH
Rattus norvegicus [46] = species on record: Rattus norvegicus; assay: animal or person; conditions: Sprague-Dawley, 1 h, read-out: INH
[47] = Unbound fraction in plasma of fasted male Sprague-Dawley rat at 10 mg/kg, po; assay type: ADME, organism-based
[48] = Unbound fraction in brain of fasted male Sprague-Dawley rat at 10 mg/kg, po; assay type: ADME, organism-based; conditions: in vivo
Rattus norvegicus [49] = assay: Hypophagic effect in fasted male Sprague-Dawley rat at 10 mg/kg, po measured after 1 hr in presence of SB242084; assay type: functional, organism-based
[50] = Basicity constant, pKa of compound; assay type: physicochemical
[51] = Stability in hepatocytes (unknown origin); assay type: ADME, cell-based, Hepatocyte
[52] = Stability in microsomes (unknown origin); assay type: ADME, Microsome
[53] = Water solubility of compound; assay type: physicochemical; conditions: buffer

Structure (SMILES): C[C@H]1CN2CCNCc3ccc(C(=O)NCC(F)F)c1c32 [BEXICASERIN]
- concentration at 1 h [1]: 960 ng/mL
- concentration at 1 h [2]: 832 ng/g
- inhibition in vivo at 5 mg/kg (Rattus norvegicus [3]): 81%
- ED50 (Rattus norvegicus [4]): 2.8 mg/kg
- half-life [5]: 0.66 h
- half-life [6]: 1.6 h
- half-life [7]: 1.3 h
- half-life [8]: 6.8 h
- AUC(0-inf) [9]: 318 ng·h/mL
- AUC(0-inf) [10]: 577 ng·h/mL
- AUC(0-inf) [11]: 1620 ng·h/mL
- AUC(0-inf) [12]: 2970 ng·h/mL
- clearance [13]: 68.8 mL/min/kg
- clearance [14]: 58.5 mL/min/kg
- clearance [15]: 20.7 mL/min/kg
- clearance [16]: 11.5 mL/min/kg
- Vd [17]: 2.98 L/kg
- Vd [18]: 3.69 L/kg
- Vd [19]: 1.85 L/kg
- Vd [20]: 4.36 L/kg
- CL renal [21]: 9.65 mL/min/kg
- CL renal [22]: 0.00333 mL/min/kg
- CL renal [23]: 0.0333 mL/min/kg
- half-life [24]: 1.5 h
- half-life [25]: 2.5 h
- half-life [26]: 4 h
- half-life [27]: 5.52 h
- Tmax [28]: 0.25 h
- Tmax [29]: 0.5 h
- Tmax [30]: 0.58 h
- Tmax [31]: 3 h
- Cmax [32]: 820 ng/mL
- Cmax [33]: 450 ng/mL
- Cmax [34]: 1590 ng/mL
- Cmax [35]: 430 ng/mL
- AUC(0-inf) [36]: 910 ng·h/mL
- AUC(0-inf) [37]: 1280 ng·h/mL
- AUC(0-inf) [38]: 3920 ng·h/mL
- AUC(0-inf) [39]: 4300 ng·h/mL
- bioavailability [40]: 100%
- bioavailability [41]: 89%
- bioavailability [42]: 97%
- bioavailability [43]: 58%

Structure (SMILES): COCCNC(=O)c1ccc2c3c1CCN3CCNC2
- inhibition in vivo at 10 mg/kg (Rattus norvegicus [44]): 9%
- inhibition in vivo at 20 mg/kg (Rattus norvegicus [45]): 25%
- inhibition in vivo at 10 mg/kg (Rattus norvegicus [46]): 7%

Structure (SMILES): CNC(=O)c1ccc2c3c1CCN3CCNC2
- inhibition in vivo at 10 mg/kg (Rattus norvegicus [44]): 87%
- ED50 (Rattus norvegicus [4]): 6.4 mg/kg
- fraction unbound [47]: 0.87
- Fu [48]: 75%
- Activity (Rattus norvegicus [49]): inactive
- pKa [50]: 7.93
- Stability [51]: Stable
- Stability [52]: Stable
- half-life [5]: 0.41 h
- half-life [6]: 0.56 h
- half-life [7]: 1.38 h
- half-life [8]: 1.49 h
- AUC(0-inf) [9]: 340 ng·h/mL
- AUC(0-inf) [10]: 770 ng·h/mL
- AUC(0-inf) [11]: 1830 ng·h/mL
- AUC(0-inf) [12]: 2000 ng·h/mL
- clearance [13]: 99 mL/min/kg
- clearance [14]: 44.3 mL/min/kg
- clearance [15]: 18.3 mL/min/kg
- clearance [16]: 16.7 mL/min/kg
- Vd [17]: 2.44 L/kg
- Vd [18]: 1.89 L/kg
- Vd [19]: 1.41 L/kg
- Vd [20]: 1.8 L/kg
- CL renal [21]: 24 mL/min/kg
- CL renal [22]: 1.17 mL/min/kg
- CL ([23]; iv, 2 mg/kg): 4.5 mL/min/kg
- half-life [24]: 0.6 h
- half-life [25]: 1.51 h
- half-life [26]: 1.9 h
- half-life [27]: 2.07 h
- Tmax [28]: 0.25 h
- Tmax [29]: 0.58 h
- Tmax [30]: 0.92 h
- Tmax [31]: 2.33 h
- Cmax [32]: 940 ng/mL
- Cmax [33]: 570 ng/mL
- Cmax [34]: 1820 ng/mL
- Cmax [35]: 700 ng/mL
- AUC(0-inf) [36]: 720 ng·h/mL
- AUC(0-inf) [37]: 2020 ng·h/mL
- AUC(0-inf) [38]: 4130 ng·h/mL
- AUC(0-inf) [39]: 3580 ng·h/mL
- bioavailability [40]: 85.6%
- bioavailability [42]: 90.2%
- bioavailability [43]: 71.2%
- solubility [53]: 91 mg/mL (≈ 393 mM)
